This note sets out measurements from ChEMBL document CHEMBL5506005, “Biochemical and structural characterization of chlorhexidine as an ATP-assisted inhibitor against type 1 methionyl-tRNA synthetase from Gram-positive bacteria” (Eur J Med Chem, 2024).

For assay [1], the target named is Methionine--tRNA ligase (Staphylococcus aureus (strain Mu50 / ATCC 700699)) (UniProt P67578). As to the kind of experiment: Binding affinity to Staphylococcus aureus MetRS expressed in Escherichia coli BL21(DE3) cells assessed as change in enthalpy in presence of 1 mM ATP by ITC analysis.
The target is the same in assay [2]. The assay can be described thus: Binding affinity to Staphylococcus aureus MetRS expressed in Escherichia coli BL21(DE3) cells assessed as change in Gibbs free energy in presence of 1 mM ATP by ITC analysis. In general terms: Isothermal titration calorimetry measures the heat released or taken up as one component is titrated into another.
The target is the same in assay [3]. As to the kind of experiment: Binding affinity to Staphylococcus aureus MetRS expressed in Escherichia coli BL21(DE3) cells assessed as change in entropy in presence of 1 mM ATP by ITC analysis.
Assay [4] has the same target. The assay can be described thus: Binding affinity to Staphylococcus aureus MetRS expressed in Escherichia coli BL21(DE3) cells assessed as change in enthalpy by ITC analysis.
Assay [5] shares this target. As to the kind of experiment: Binding affinity to Staphylococcus aureus MetRS expressed in Escherichia coli BL21(DE3) cells assessed as change in Gibbs free energy by ITC analysis.
Assay [6] has the same target. The assay can be described thus: Binding affinity to Staphylococcus aureus MetRS expressed in Escherichia coli BL21(DE3) cells assessed as change in entropy by ITC analysis.
Assay [7] has the same target. As to the kind of experiment: Binding affinity to Staphylococcus aureus MetRS expressed in Escherichia coli BL21(DE3) cells assessed as change in enthalpy in presence of 20 uM ATP by ITC analysis.
For assay [8] the target is unchanged. The assay can be described thus: Binding affinity to Staphylococcus aureus MetRS expressed in Escherichia coli BL21(DE3) cells assessed as change in Gibbs free energy in presence of 20 uM ATP by ITC analysis.
Assay [9] shares this target. As to the kind of experiment: Binding affinity to Staphylococcus aureus MetRS expressed in Escherichia coli BL21(DE3) cells assessed as change in entropy in presence of 20 uM ATP by ITC analysis.
Assay [10] has the same target. The assay can be described thus: Binding affinity to Staphylococcus aureus MetRS expressed in Escherichia coli BL21(DE3) cells assessed as change in enthalpy in presence of 50 uM ATP by ITC analysis.
For assay [11] the target is unchanged. As to the kind of experiment: Binding affinity to Staphylococcus aureus MetRS expressed in Escherichia coli BL21(DE3) cells assessed as change in Gibbs free energy in presence of 50 uM ATP by ITC analysis.
Assay [12] has the same target. The assay can be described thus: Binding affinity to Staphylococcus aureus MetRS expressed in Escherichia coli BL21(DE3) cells assessed as change in entropy in presence of 50 uM ATP by ITC analysis.
Assay [13] has the same target. As to the kind of experiment: Binding affinity to Staphylococcus aureus MetRS expressed in Escherichia coli BL21(DE3) cells assessed as thermal stability by measuring change in melting temperature incubated for 10 mins followed by heat treatment in presence of 2 mM ATP by SYPRO orange dye based TSA.
Assay [14] shares this target. The assay can be described thus: Binding affinity to Staphylococcus aureus MetRS expressed in Escherichia coli BL21(DE3) cells assessed as change in melting temperature at 100 uM incubated for 10 mins followed by heat treatment by SYPRO orange dye based TSA (reference value: 53.7 degreeC).
Assay [15] shares this target. The assay can be described thus: Binding affinity to Staphylococcus aureus MetRS expressed in Escherichia coli BL21(DE3) cells assessed as change in melting temperature at 100 uM incubated for 10 mins followed by heat treatment in presence of 2 mM ATP by SYPRO orange dye based TSA (reference value: 56.4 degreeC).
Assay [16] shares this target. The assay can be described thus: Inhibition of Staphylococcus aureus MetRS expressed in Escherichia coli BL21(DE3) cells at 100 uM measured after 2.5 hrs in presence of ATP by pre-transfer editing assay relative to control.

Sequence of Methionine--tRNA ligase (Staphylococcus aureus (strain Mu50 / ATCC 700699)) (P67578 whole entry): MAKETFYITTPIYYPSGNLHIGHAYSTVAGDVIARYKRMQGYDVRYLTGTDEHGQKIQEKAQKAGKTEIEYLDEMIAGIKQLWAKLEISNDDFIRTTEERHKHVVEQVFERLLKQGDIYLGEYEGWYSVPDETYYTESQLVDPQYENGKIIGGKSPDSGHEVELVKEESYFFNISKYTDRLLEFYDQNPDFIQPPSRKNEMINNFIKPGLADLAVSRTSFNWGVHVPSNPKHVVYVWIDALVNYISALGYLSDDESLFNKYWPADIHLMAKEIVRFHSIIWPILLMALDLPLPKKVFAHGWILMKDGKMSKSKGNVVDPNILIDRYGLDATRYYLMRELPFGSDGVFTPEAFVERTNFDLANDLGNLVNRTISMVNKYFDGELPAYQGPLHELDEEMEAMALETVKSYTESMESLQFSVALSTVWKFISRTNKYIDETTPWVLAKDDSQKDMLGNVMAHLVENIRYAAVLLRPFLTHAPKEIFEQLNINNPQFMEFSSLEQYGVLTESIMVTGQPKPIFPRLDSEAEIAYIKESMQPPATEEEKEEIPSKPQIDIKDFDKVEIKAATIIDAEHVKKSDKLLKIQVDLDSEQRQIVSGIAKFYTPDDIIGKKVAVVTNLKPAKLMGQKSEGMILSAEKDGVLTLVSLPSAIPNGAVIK

As for `N=C(NCCCCNC(=N)NC(=N)Nc1ccc(Cl)cc1)NC(=N)Nc1ccc(Cl)cc1`, the deltaH in assay [1] is -14.4 kcal/mol; in [4], -8.62 kcal/mol; in assay [7], -18 kcal/mol; in assay [10], -15.7 kcal/mol. The deltaG is -8.7 kcal/mol in [2], -7.24 kcal/mol in assay [5], -8 kcal/mol in assay [8] and -8.61 kcal/mol in [11]. In addition, the -TdeltaS in assay [3] was determined as 6.23 kcal/mol; in assay [6], 1.94 kcal/mol; in assay [9], 11.3 kcal/mol; in assay [12], 7.28 kcal/mol. Besides, in assay [13], the ΔTm (in general, the change in melting temperature against a reference sample) was found to be 9 °C.
Turning to `CCN(CC)CCCC(C)Nc1ccnc2cc(Cl)ccc12` (configuration not stated), the figures for the ΔTm in assay [14] and in assay [15] were -0.1 °C and 1.1 °C, respectively. Also, the inhibition – broadly, how much of the control response was suppressed – in assay [16] was less than 20%.
Regarding VITAMIN E, the ΔTm came to 1.2 °C in [14] and 1 °C in [15]. Further, in assay [16], the inhibition is less than 20%.
For `C=C(F)c1sc(CNCCCNc2cc(=O)c3ccccc3[nH]2)c(C)c1Br` the same measures were 16.2 °C, 20.3 °C and greater than 99%.
